According to article PMC5640644, “HDX reveals the conformational dynamics of DNA sequence specific VDR co-activator interactions” (Nature Communications, 2017):
pEC50: −log10 of the molar value. Like-named read-outs stand apart in the source and are kept apart here.

Key:
TRPV6 = TRPV6 gene activation assay (TRPV6 mRNA, QuantiGene 2.0) in differentiated C2BBe1 cells; assay type: cell-based, human; settings: for Max. Stim., TRPV6 activation: C2BBe1 cells, fold change over DMSO normalized to 1,25D3 = 100%; for pEC50: C2BBe1 cells differentiated 6 days, 24 h
Experimental: C2BBe1 (a clone of CaCO2) cells (CRL-2101, American Type Culture Collection, Manassas, VA) were maintained in DMEM (ATCC 30-2002) supplemented with 10% FBS and insulin-transferrin-selenium-G supplement (Invitrogen, Carlsbad, CA). For TRPV6 expression analysis, cells were plated in 96-well tissue culture treated plates (40,000 per well) in differentiation medium (DMEM containing 5% charcoal-stripped FBS and insulin-transferrin-sodium selenite supplement (ITS)). Cells were allowed to differentiate for 6 days with medium replacement every other day before compound treatment. The medium was removed, and serial dilutions of 1,25D3 or VDRMs in concentrations ranging from 10 μM to 2 nM in differentiation medium were added. After 24 h, the medium was removed, and cell plates were sealed and frozen at −80 °C until assayed. QuantiGene 2.0 Assay Kit (Affymetrix QS0009) was used to quantitate TRPV6 and housekeeping gene GUSB mRNA levels. Following the kit instructions, lysis buffer was added to the frozen cells and incubated briefly at 55 °C […]. Following an overnight incubation the capture plates were washed and the probes amplified following kit instructions. The resulting luminescence signal was detected on an Envision plate reader (Perkin Elmer). TRPV6 signal was normalized using the GUSB signal and the resulting data was fit to a 4-parameter logistic to determine EC50 values.

BGLAP = BGLAP gene activation assay (BGLAP mRNA, QuantiGene 2.0) in MG-63 cells; assay type: cell-based, human; settings: MG-63 cells; for pEC50: 24 h, average of replicate runs, read-out: EC50, BGLAP activation; for Max. Stim., BGLAP activation: fold change over DMSO normalized to 1,25D3 = 100%
Experimental: Human osteosarcoma cells MG-63, (CRL-1427, American Type Culture Collection (ATCC), Manassas, VA), were maintained in EMEM (ATCC 30–2003) + 10% FBS in 5% CO2. For bone gamma-carboxyglutamate protein (BGLAP) expression analysis MG-63 cells, suspended in EMEM (ATCC 30–2003) + 5% charcoal dextran treated FBS, were seeded onto 96-well tissue culture treated plates at 25,000 cells per well. After an overnight incubation the medium was removed and serial dilutions of VDRMs in concentrations ranging from 10 μM to 2 nM in EMEM (ATCC 30–2003) + 5% charcoal dextran treated FBS were added. Following a 24 h incubation the medium was removed and the plates were sealed and stored at −80 °C for later processing. QuantiGene 2.0 Assay Kit (Affymetrix QS0009) was used to quantitate BGLAP and the Housekeeping gene […] mRNA levels. Following the kit instructions, lysis buffer was added to the frozen cells and incubated briefly at 55 °C. A volume of 20 μl of BGLAP probeset (Affymetrix SA-10875-01) or 18 S (Affymetrix SA-10026) in blocking buffer was added to the provided capture plates before adding 80 μl of the cell lysate. The plates were sealed and incubated at 55 °C overnight. Following an overnight incubation the capture plates were washed and the probes amplified following kit instructions. The resulting luminescence signal was detected on an Envision (Perkin Elmer). BGLAP signal was normalized using the 18S signal and the resulting data was fit to a 4-parameter logistics to determine EC50.

[1] = Homo sapiens, average of replicate runs

CCc1cc(C(CC)(CC)c2ccc(OCC(O)C(C)(C)C)c(C)c2)sc1C(=O)N[C@@H](C)C(=O)O (single isomer, unassigned) [Cmpd2, L-2-[(5-{1-Ethyl-1-[4-(2-hydroxy-3,3-dimethyl-butoxy)-3-methyl-phenyl]-propyl}-3-ethyl-thiophene-2-carbonyl)-amino]-propionic acid]
Max. Stim., TRPV6 activation (TRPV6): 98.2% | pEC50 (TRPV6; [1]): 6.40 | pEC50 (BGLAP; Homo sapiens): 7.46 | Max. Stim., BGLAP activation (BGLAP): 73%

CCC(CC)(c1ccc(OCC(O)C(C)(C)C)c(C)c1)c1ccc(C(=O)N(C)CC(=O)O)c(C)c1 (stereo not drawn) [Cmpd1, [(4-{1-ethyl-1-[4-(2-hydroxy-3,3-dimethyl-butoxy)-3-methyl-phenyl]-propyl}-2-methyl-benzoyl)-methyl-amino]-acetic acid]
Max. Stim., TRPV6 activation (TRPV6): 80.3% | pEC50 (TRPV6; [1]): 7.20 | pEC50 (BGLAP; Homo sapiens): 8.84 | Max. Stim., BGLAP activation (BGLAP): 94.2%

CCC(CC)(c1ccc(OCC(O)C(C)(C)C)c(C)c1)c1cc(C)c(C(=O)Nc2nnn[nH]2)s1 (stereo not drawn) [Cmpd3, 3'-[4-(2-hydroxy-3,3-dimethylbutoxy)-3-methylphenyl]-3'-[5-(tetrazol-5-yl-aminocarbonyl)-4-methylthiophen-2-yl]pentane]
pEC50 (TRPV6; top concentration 10 μM): < 5.00 | Max. Stim., TRPV6 activation (TRPV6): 17.4% | pEC50 (BGLAP): 6.16 | Max. Stim., BGLAP activation (BGLAP): 75.9%
